One test has as its target T1, human V2 receptor (Homo sapiens, UniProt P30518).
T1 construct: expressed in transfected cells; host or cells: CHO K1 (ATCC) expressing firefly luciferase under a CRE-responsive promoter
The test is described as follows: Cellular in vitro assay for determining vasopressin receptor activity (V2, CRE-luciferase). Type of test: cell-based. Particulars: CHO cell line transfected with the human V2 receptor; [Arg8]-vasopressin at EC50 concentration; read-out: IC50 hV2. The protocol: (§1) B-1. Cellular In Vitro Assay for Determining Vasopressin Receptor Activity
(§2) The identification of agonists and antagonists of the V1a and V2 vasopressin receptors from humans, rats and dogs as well as the quantification of the activity of the compounds of the invention is carried out using recombinant cell lines. These cell lines originally derive from a hamster's ovary epithelial cell (Chinese Hamster Ovary, CHO K1, ATCC: American Type Culture Collection, Manassas, Va. 20108, USA). The test cell lines constitutively express the human, rat or dog V1a or V2 receptors. In case of the Gαq-coupled V1a receptors, cells are also stably transfected with a modified form of the calcium-sensitive photoproteins aequorin (human and rat V1a) or obelin (dog V1a), which, after reconstitution with the cofactor coelenterazine, emit light when there are increases in free calcium concentrations [Rizzuto R, Simpson A W, Brini M, Pozzan T, Nature 358, 325-327 (1992); Illarionov B A, Bondar V S, Illarionova V A, Vysotski E S, Gene 153 (2), 273-274 (1995)]. The resulting vasopressin receptor cells react to stimulation of the recombinantly expressed V1a receptors by intracellular release of calcium ions, which can be quantified by the resulting photoprotein luminescence. The Gs-coupled V2 receptors are stably transfected into cell lines expressing the gene for firefly luciferase under control of a CRE-responsible promoter. Activation of V2 receptors induces the activation of the CRE-responsive promoter via cAMP increase, thereby inducing the expression of firefly luciferase. The light emitted by photoproteins of V1a cell lines as well as the light emitted by firefly luciferase of V2 cell lines corresponds to the activation or inhibition of the respective vasopressin receptor. The bioluminescence of the cell lines is detected using a suitable luminometer [Milligan G, Marshall F, Rees S, Trends in Pharmacological Sciences 17, 235-237 (1996)].
Vasopressin V2 receptor cell lines:
On the day before the assay, the cells are plated out in culture medium (DMEM/F12, 2% FCS, 2 mM glutamine, 10 mM HEPES) in 384-well microtiter plates and kept in a cell incubator (96% humidity, 5% v/v CO2, 37° C.). On the day of the assay, test compounds in various concentrations and the agonist [Arg^8]-vasopressin at EC50 concentration are added together to the wells, and plates are incubated for 3 hours in a cell incubator. Upon addition of the cell lysis reagent Triton™ and the substrate luciferin, luminescence of firefly luciferase is measured in a luminometer.
(§3) Table 1A below lists individual IC50 values for the compounds of the invention (including racemic mixtures as well as separated enantiomers) that were obtained from cell lines transfected with the human V1a or V2 receptor: […]

A further test concerns the target T2, human V1a receptor (Homo sapiens, UniProt P37288).
T2 construct: expressed in transfected cells; host or cells: CHO K1 (ATCC), also stably transfected with a modified aequorin
Description: Cellular in vitro assay for determining vasopressin receptor activity (V1a, aequorin luminescence). Format: cell-based. Particulars: for IC50: CHO cell line transfected with the human V1a receptor, [Arg8]-vasopressin at EC50 concentration, read-out: IC50 hV1a; for ratio IC50 hV2/hV1a: selectivity ratio of IC50 hV2 to IC50 hV1a. The protocol:
as §1, §2
Vasopressin V1a receptor cell lines:
On the day before the assay, the cells are plated out in culture medium (DMEM/F12, 2% FCS, 2 mM glutamine, 10 mM HEPES, 5 μg/ml coelenterazine) in 384-well microtiter plates and kept in a cell incubator (96% humidity, 5% v/v CO2, 37° C.). On the day of the assay, test compounds in various concentrations are placed for 10 minutes in the wells of the microtiter plate before the agonist [Arg^8]-vasopressin at EC50 concentration is added. The resulting light signal is measured immediately in a luminometer.
as §3

One may read the IC50 as the concentration that inhibits the measured activity by half.

Molecules are shown by their SMILES.

T1 sequence (P30518 whole entry): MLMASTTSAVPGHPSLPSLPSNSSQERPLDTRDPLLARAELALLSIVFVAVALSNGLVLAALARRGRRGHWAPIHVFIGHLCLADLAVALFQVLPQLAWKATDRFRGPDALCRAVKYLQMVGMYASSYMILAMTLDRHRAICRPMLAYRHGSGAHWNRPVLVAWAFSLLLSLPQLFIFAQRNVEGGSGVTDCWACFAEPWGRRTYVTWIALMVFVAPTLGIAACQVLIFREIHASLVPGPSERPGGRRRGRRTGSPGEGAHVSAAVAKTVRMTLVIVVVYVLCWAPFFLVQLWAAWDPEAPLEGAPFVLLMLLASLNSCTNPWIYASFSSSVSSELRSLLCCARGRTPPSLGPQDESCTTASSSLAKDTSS
T2 sequence (P37288 whole entry): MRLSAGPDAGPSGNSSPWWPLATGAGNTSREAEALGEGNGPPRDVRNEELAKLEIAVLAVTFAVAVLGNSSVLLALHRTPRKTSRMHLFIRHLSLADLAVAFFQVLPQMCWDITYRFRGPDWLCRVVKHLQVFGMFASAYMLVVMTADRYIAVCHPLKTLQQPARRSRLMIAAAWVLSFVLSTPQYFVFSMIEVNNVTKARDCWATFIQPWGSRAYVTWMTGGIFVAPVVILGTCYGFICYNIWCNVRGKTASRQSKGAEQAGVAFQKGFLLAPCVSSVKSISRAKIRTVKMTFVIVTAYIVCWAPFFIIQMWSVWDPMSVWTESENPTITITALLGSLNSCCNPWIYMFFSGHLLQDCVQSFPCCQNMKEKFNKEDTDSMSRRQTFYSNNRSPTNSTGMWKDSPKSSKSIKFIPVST

With `CN1C(=O)CCC1c1nc(Cn2nc(-c3ccc(Cl)cc3)n(C[C@H](O)C(F)(F)F)c2=O)nn1CCC(F)(F)F` (mixture of isomers) [Example 130, 5-(4-Chlorophenyl)-2-({5-[1-methyl-5-oxopyrrolidin-2-yl]-1-(3,3,3-trifluoropropyl)-1H-1,2,4-triazol-3-yl}methyl)-4-[(2S)-3,3,3-trifluoro-2-hydroxypropyl]-2,4-dihydro-3H-1,2,4-triazol-3-one], at human V2 receptor, the 50% inhibitory concentration (IC50) was determined as 2680 nM. In addition, on human V1a receptor, the IC50 came to 21 nM and the “ratio IC50 hV2/hV1a” value was 127.9.
For `COc1ccccc1-n1nc(Cn2nc(-c3ccc(Cl)cc3)n(C[C@H](O)C(F)(F)F)c2=O)nc1C(C)OC(N)=O` (single isomer, unassigned) [Example 39] the same measures were 1.76 nM, 1.1 nM and 1.6.
In the case of `COc1ccccc1-n1nc(Cn2nc(-c3ccc(Cl)cc3)n(C[C@H](OC(N)=O)C(F)(F)F)c2=O)nc1C(C)OC(N)=O` (single isomer, unassigned) [Example 40], the IC50 at human V2 receptor amounted to 6.35 nM. Moreover, on human V1a receptor, the IC50 stood at 5.86 nM and the “ratio IC50 hV2/hV1a” value is 1.1.
As to `COc1ccccc1-n1nc(Cn2nc(-c3ccc(Cl)cc3)n(C[C@H](O)C(F)(F)F)c2=O)nc1C(C)OC(N)=O` (single isomer, unassigned) [Example 41], the IC50 on human V2 receptor came out at 9.69 nM. Further, on human V1a receptor, the concentration for half-maximal inhibition (IC50) is 2.01 nM and the “ratio IC50 hV2/hV1a” value was 4.8.
For `COc1ccccc1-n1nc(Cn2nc(-c3ccc(Cl)cc3)n(C[C@H](OC(N)=O)C(F)(F)F)c2=O)nc1C(C)OC(N)=O` (single isomer, unassigned) [Example 42] the same measures were 7.37 nM, 1.08 nM and 6.8.
For `CC(N)c1nc(Cn2nc(-c3ccc(Cl)cc3)n(C[C@H](O)C(F)(F)F)c2=O)nn1-c1cccc(F)c1` (single isomer, unassigned) [Example 54] the same measures were 4.2 nM, 3.09 nM and 1.4.
As for `CC(N)c1nc(Cn2nc(-c3ccc(Cl)cc3)n(C[C@H](O)C(F)(F)F)c2=O)nn1-c1cccc(F)c1` (single isomer, unassigned) [Example 55], on human V2 receptor, the IC50 was 26 nM. Also, on human V1a receptor, the IC50 is 18 nM and the “ratio IC50 hV2/hV1a” value is recorded as 1.4.
For `CC(N)c1nc(Cn2nc(-c3ccc(Cl)cc3)n(C[C@H](O)C(F)(F)F)c2=O)nn1-c1ccccc1Cl` (single isomer, unassigned) [Example 61] the same measures were 2.83 nM, 0.45 nM and 6.3.
For `CC(N)c1nc(Cn2nc(-c3ccc(Cl)cc3)n(C[C@H](O)C(F)(F)F)c2=O)nn1-c1ccccc1Cl` (single isomer, unassigned) [Example 62] the same measures were 11.4 nM, 0.97 nM and 11.7.
For `CC(=O)NC(C)c1nc(Cn2nc(-c3ccc(Cl)cc3)n(C[C@H](O)C(F)(F)F)c2=O)nn1-c1ccccc1Cl` (single isomer, unassigned) [Example 65] the same measures were 10.8 nM, 2.05 nM and 5.3.
On to `CC(=O)NC(C)c1nc(Cn2nc(-c3ccc(Cl)cc3)n(C[C@H](O)C(F)(F)F)c2=O)nn1-c1ccccc1Cl` (single isomer, unassigned) [Example 66], for which the IC50 on human V2 receptor was 52.5 nM. On human V1a receptor, the 50% inhibitory concentration (IC50) amounted to 3.75 nM and the “ratio IC50 hV2/hV1a” value came to 14.0.
The like results for `CC(NS(C)(=O)=O)c1nc(Cn2nc(-c3ccc(Cl)cc3)n(C[C@H](O)C(F)(F)F)c2=O)nn1-c1ccccc1Cl` (single isomer, unassigned) [Example 68] were, in that order, 4.5 nM, 0.97 nM and 4.6.
For `CC(NS(C)(=O)=O)c1nc(Cn2nc(-c3ccc(Cl)cc3)n(C[C@H](O)C(F)(F)F)c2=O)nn1-c1ccccc1Cl` (single isomer, unassigned) [Example 69] the same measures were 8.65 nM, 0.7 nM and 12.4.
Turning to `CN1C(=O)CCC1c1nc(Cn2nc(-c3ccc(Cl)cc3)n(C[C@H](O)C(F)(F)F)c2=O)nn1-c1ccccc1Cl` (single isomer, unassigned) [Example 71], at human V2 receptor, the IC50 was 13.8 nM. Besides, at human V1a receptor, the concentration for half-maximal inhibition (IC50) came out at 0.7 nM and the “ratio IC50 hV2/hV1a” value is listed as 19.7.
For `CN1C(=O)CCC1c1nc(Cn2nc(-c3ccc(Cl)cc3)n(C[C@H](O)C(F)(F)F)c2=O)nn1-c1ccccc1Cl` (single isomer, unassigned) [Example 72] the same measures were 6.63 nM, 0.67 nM and 9.9.
The like results for `CC(NC(=O)C(F)(F)F)c1nc(Cn2nc(-c3ccc(Cl)cc3)n(C[C@H](O)C(F)(F)F)c2=O)nn1-c1ccccc1Cl` (single isomer, unassigned) [Example 74] were, in that order, 18 nM, 5.35 nM and 3.4.
The like results for `CC(NC(=O)C(F)(F)F)c1nc(Cn2nc(-c3ccc(Cl)cc3)n(C[C@H](O)C(F)(F)F)c2=O)nn1-c1ccccc1Cl` (single isomer, unassigned) [Example 75] were, in that order, 59 nM, 4.2 nM and 14.1.
Consider `CC(C)(C)OCC(NS(C)(=O)=O)c1nc(Cn2nc(-c3ccc(Cl)cc3)n(C[C@H](O)C(F)(F)F)c2=O)nn1-c1ccccc1Cl` (single isomer, unassigned) [Example 83], for which the IC50 at human V2 receptor turned out to be 80.5 nM. At human V1a receptor, the half-maximal inhibitory concentration (IC50) turned out to be 1.95 nM and the “ratio IC50 hV2/hV1a” value was found to be 41.3.
For `CC(C)(C)OCC(NS(C)(=O)=O)c1nc(Cn2nc(-c3ccc(Cl)cc3)n(C[C@H](O)C(F)(F)F)c2=O)nn1-c1ccccc1Cl` (single isomer, unassigned) [Example 84], the IC50 on human V2 receptor was 44.5 nM; at human V1a receptor it was 4.75 nM. Further, the “ratio IC50 hV2/hV1a” value on human V1a receptor was found to be 9.4.
For `CS(=O)(=O)NC(CO)c1nc(Cn2nc(-c3ccc(Cl)cc3)n(C[C@H](O)C(F)(F)F)c2=O)nn1-c1ccccc1Cl` (single isomer, unassigned) [Example 86] the same measures were 2 nM, 0.97 nM and 2.1.
`CS(=O)(=O)NC(CO)c1nc(Cn2nc(-c3ccc(Cl)cc3)n(C[C@H](O)C(F)(F)F)c2=O)nn1-c1ccccc1Cl` (single isomer, unassigned) [Example 87]: the IC50 at human V2 receptor came to 35.5 nM. On human V1a receptor, the IC50 is 2.25 nM and the “ratio IC50 hV2/hV1a” value is reported as 15.8.
On to `CC(=O)NC(COC(C)(C)C)c1nc(Cn2nc(-c3ccc(Cl)cc3)n(C[C@H](O)C(F)(F)F)c2=O)nn1-c1ccccc1Cl` (single isomer, unassigned) [Example 89], for which the IC50 at human V2 receptor was 129 nM; on human V1a receptor, 3.45 nM. Moreover, on human V1a receptor, the “ratio IC50 hV2/hV1a” value is 37.4.
In the case of `CC(=O)NC(COC(C)(C)C)c1nc(Cn2nc(-c3ccc(Cl)cc3)n(C[C@H](O)C(F)(F)F)c2=O)nn1-c1ccccc1Cl` (single isomer, unassigned) [Example 90], on human V2 receptor, the IC50 was found to be 4900 nM. Besides, at human V1a receptor, the IC50 stood at 12.5 nM and the “ratio IC50 hV2/hV1a” value is 392.0.

These data come from patent US20210253557A1, “SUBSTITUTED TRIAZOLE DERIVATIVES AND USES THEREOF” (Bayer Pharma Aktiengesellschaft, priority 2017, published 2021).
